Data: patent US8895313B2, “Ligands for aggregated tau molecules” (Wista Laboratories Ltd., priority 2008, dated 2014)
Values belong to the molecule of their own block, whether it stands above or below them.

Legend:
[1] = biological target: T1, aggregated tau in 3T6 cells expressing htau40 (IPTG-inducible) and truncated tau (Homo sapiens, UniProt P10636); assay: Tissue culture cell assay: uptake and labelling of aggregated tau; format: cell-based, mouse; settings: for binding to aggregated tau within cells, fluorescence microscopy: induced cells
T1 construct: express both full-length human tau protein (htau40); truncated tau (295-390, dGA); expressed in transfected cells; host or cells: murine 3T6 fibroblasts; htau40 in pOPRSVI (IPTG-inducible), dGA in pcDNA3.1 (constitutive)
Protocol: The aggregated tau was prepared in cell lines as described in WO02/055720. In essence, fibroblast cells (3T6) express full-length tau (“T40”) under control of an inducible promotor, and low constitutive levels of the PHF-core tau fragment (12 kD fragment). Then T40 expression is induced, it undergoes aggregation-dependent truncation within the cell, N-terminally at ˜αα295 and C-terminally at ˜αα390, thereby producing higher levels of the 12 kD PHF-core domain fragment.
The tissue culture assay uses 3T6 mouse cells engineered to express both full-length human tau protein (htau40) under the control of an inducible promoter (pOPRSVI), and to express low levels of truncated tau (295-390, dGA) under the control of a constitutive promoter (pcDNA3.1). Expression of large quantities of htau40 is induced by the addition of isopropyl β-D-1-thiogalactopyranoside (IPTG; 10-50 μM), which in turn leads to the production of additional truncated tau by a process in which aggregation and processing of the full-length tau occurs in the presence of dGA tau which acts as template. The aggregation of tau in this assay is depicted in FIG. 1.
Murine 3T6 fibroblast cells were grown to ˜80% confluency in a 10-cm dish, before splitting into 2×24 well plates, and allowed to grow for a further 24 hrs when IPTG was added. After overnight incubation, the medium was removed and the cells were washed with PBS.
A similar experiment was performed with cells seeded on to cover slips in a 24-well plate. After 24 hrs, the cells were incubated with ligand for 20 hrs in the presence or absence of IPTG (100 μM) i.e. induced or uninduced.

[2] = biological target: T2, aggregated tau in brain sections of line 66 mice (full-length human tau, P301S/G335D) (Homo sapiens, UniProt P10636, G652D/P618S); assay: Ligand staining of paraffin-embedded brain sections; design: species or system mouse
T2 construct: transgenic mice expressing full-length human tau; from tissue; host or cells: fixed brain sections of transgenic line 66 mice (paraffin-embedded or frozen)
T2 sequence (P10636 1-441 isoform P10636-8 P301S/G335D): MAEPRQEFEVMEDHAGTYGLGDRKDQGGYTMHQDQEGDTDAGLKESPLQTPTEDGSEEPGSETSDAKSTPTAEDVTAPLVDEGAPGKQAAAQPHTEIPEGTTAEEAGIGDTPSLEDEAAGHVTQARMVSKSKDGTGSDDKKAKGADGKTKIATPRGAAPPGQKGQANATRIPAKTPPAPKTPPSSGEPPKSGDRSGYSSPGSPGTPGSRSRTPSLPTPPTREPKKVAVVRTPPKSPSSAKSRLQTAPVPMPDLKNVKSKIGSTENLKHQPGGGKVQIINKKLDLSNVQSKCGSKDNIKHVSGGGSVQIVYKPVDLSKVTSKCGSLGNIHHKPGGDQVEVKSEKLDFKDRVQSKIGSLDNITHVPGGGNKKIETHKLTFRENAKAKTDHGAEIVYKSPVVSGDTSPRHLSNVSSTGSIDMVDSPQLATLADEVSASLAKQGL
Text: The binding of ligands to aggregated tau in tissue sections or cells containing such aggregates can also be used to test whether such compounds can (i) enter cells, and (ii) bind to aggregated tau. In addition, it is a suitable means to test fluorescent ligands that cannot be tested in the fluorescent competition binding assay.
Brain tissue sections were used from transgenic mice expressing full-length human tau, that contained a double mutation P301S/G335D (line 66 mouse). Aggregated tau pathology accumulates in neurons in these animals. Fixed tissue was used either after embedding in paraffin or after freezing in the presence of cryoprotectant.
Sections from the brains of mice expressing full-length tau, that contain a double mutation P301S/G335D, associated with frontotemporal […] were cut 5 μm thick. Sections were dewaxed and rehydrated into water. Inherent fluorescence was quenched with sodium permanganate followed by sodium borohydride. Primulin or SK2033-30 was added in 50% ethanol. In a second experiment, SK2033-30 was added in 50% ethanol containing 10% DMSO. Sections were compared with those stained by standard immunohistochemistry using mAb 7/51, an antibody recognising truncated tau repeat domain (Novak et al. (1993); Wischik et al. (1996)).

[3] = Biodistribution assay of 18F-labelled ligand; format: in vivo, mouse; settings: mice
Protocol: Biodistribution and excretion studies for ligands were performed in male NMRI mice (body weight app. 30 g; 3 animals per time point). The animals were kept under normal laboratory conditions at a temperature of 22±2° C. and a dark/light rhythm of 12 hours. Food and water were provided ad libitium. During an acclimatisation period of at least 3 days before the beginning of the study, animals were clinically examined to ascertain the absence of abnormal clinical signs. At 2, 5, 30, 60 and 120 min post intravenous injection via the tail vein of ca. 150 kBq in 100 μl of the test compound, urine and faeces were quantitatively collected. At the same time points, animals were anaesthetised with isoflurane, sacrificed by decapitation and the following organs and tissues were removed for the determination of radioactivity using a gamma-counter: spleen, liver, kidney, lung, bone, heart, brain, fat, thyroid, muscle, skin, blood, tail, stomach (without content), testicle, intestine (with content), pancreas, adrenals, skull, and the remaining body. For the analysis, the decay corrected percentage of the injected dose per tissue weight (% ID/g±standard deviation) was calculated.

uptake and labelling of aggregated tau in induced cells ([1]; IPTG-induced cells): demonstrated | binding to aggregated tau within cells, fluorescence microscopy [1]: selective binding
Structure (SMILES): Cc1ccc2nc(-c3ccc(/C=C/c4ccc(N(C)C)cc4)cc3)sc2c1 [SK2033-30, 2-{4-[2-(4-Dimethylaminophenyl)-vinyl]-phenyl}-6-methylbenzothiazole]
staining pattern in paraffin-embedded line 66 mouse brain section ([2]; ligand added in 50% ethanol containing 10% DMSO): showed a staining pattern similar to that observed with primulin or antibody | uptake/staining in paraffin-embedded line 66 mouse brain section ([2]; ligand added in 50% ethanol, compared with primulin or antibody immunostaining): little evidence for its uptake into cells

binding to aggregated tau within cells, fluorescence microscopy [1]: selective binding
Structure (SMILES): Oc1ccc(/N=N/c2ccc(-c3nc4ccc(O)cc4s3)cc2)c(C(F)(F)F)c1 [LS-T213, 4-{(E)-[4-(6-Hydroxy-1,3-benzothiazol-2-yl)phenyl]diazenyl}-3-(trifluoromethyl)phenol]

% ID/g ([3]; Adrenals, 2 min post i.v.): 10.84 % ID/g | % ID/g ([3]; Adrenals, 5 min post i.v.): 9.59 % ID/g | % ID/g ([3]; Adrenals, 30 min post i.v.): 5.62 % ID/g | % ID/g ([3]; Adrenals, 60 min post i.v.): 2.83 % ID/g | % ID/g ([3]; Adrenals, 120 min post i.v.): 1.04 % ID/g | % ID/g ([3]; Blood, 2 min post i.v.): 1.69 % ID/g | % ID/g ([3]; Blood, 5 min post i.v.): 1.12 % ID/g | % ID/g ([3]; Blood, 30 min post i.v.): 0.74 % ID/g | % ID/g ([3]; Blood, 60 min post i.v.): 0.39 % ID/g | % ID/g ([3]; Blood, 120 min post i.v.): 0.16 % ID/g | % ID/g ([3]; Bone, 2 min post i.v.): 1.54 % ID/g | % ID/g ([3]; Bone, 5 min post i.v.): 1.50 % ID/g | % ID/g ([3]; Bone, 30 min post i.v.): 1.20 % ID/g | % ID/g ([3]; Bone, 60 min post i.v.): 1.96 % ID/g | % ID/g ([3]; Bone, 120 min post i.v.): 1.65 % ID/g | % ID/g ([3]; Brain, 2 min post i.v.): 3.99 % ID/g | % ID/g ([3]; Brain, 5 min post i.v.): 3.54 % ID/g | % ID/g ([3]; Brain, 30 min post i.v.): 3.19 % ID/g | % ID/g ([3]; Brain, 60 min post i.v.): 1.43 % ID/g | % ID/g ([3]; Brain, 120 min post i.v.): 0.60 % ID/g | % ID/g ([3]; Fat, 2 min post i.v.): 1.25 % ID/g | % ID/g ([3]; Fat, 5 min post i.v.): 1.57 % ID/g | % ID/g ([3]; Fat, 30 min post i.v.): 7.21 % ID/g | % ID/g ([3]; Fat, 60 min post i.v.): 4.51 % ID/g | % ID/g ([3]; Fat, 120 min post i.v.): 1.76 % ID/g | % ID/g ([3]; Heart, 2 min post i.v.): 6.68 % ID/g | % ID/g ([3]; Heart, 5 min post i.v.): 3.72 % ID/g | % ID/g ([3]; Heart, 30 min post i.v.): 1.62 % ID/g | % ID/g ([3]; Heart, 60 min post i.v.): 0.81 % ID/g | % ID/g ([3]; Heart, 120 min post i.v.): 0.39 % ID/g | % ID/g ([3]; Intestine, 2 min post i.v.): 1.99 % ID/g | % ID/g ([3]; Intestine, 5 min post i.v.): 2.45 % ID/g | % ID/g ([3]; Intestine, 30 min post i.v.): 9.36 % ID/g | % ID/g ([3]; Intestine, 60 min post i.v.): 17.43 % ID/g | % ID/g ([3]; Intestine, 120 min post i.v.): 20.08 % ID/g | % ID/g ([3]; Kidney, 2 min post i.v.): 9.60 % ID/g | % ID/g ([3]; Kidney, 5 min post i.v.): 7.10 % ID/g | % ID/g ([3]; Kidney, 30 min post i.v.): 6.38 % ID/g | % ID/g ([3]; Kidney, 60 min post i.v.): 3.78 % ID/g | % ID/g ([3]; Kidney, 120 min post i.v.): 1.49 % ID/g | % ID/g ([3]; Liver, 2 min post i.v.): 11.52 % ID/g | % ID/g ([3]; Liver, 5 min post i.v.): 13.30 % ID/g | % ID/g ([3]; Liver, 30 min post i.v.): 7.03 % ID/g | % ID/g ([3]; Liver, 60 min post i.v.): 4.26 % ID/g | % ID/g ([3]; Liver, 120 min post i.v.): 2.41 % ID/g | % ID/g ([3]; Lung, 2 min post i.v.): 6.91 % ID/g | % ID/g ([3]; Lung, 5 min post i.v.): 4.55 % ID/g | % ID/g ([3]; Lung, 30 min post i.v.): 1.83 % ID/g | % ID/g ([3]; Lung, 60 min post i.v.): 0.97 % ID/g | % ID/g ([3]; Lung, 120 min post i.v.): 0.40 % ID/g | % ID/g ([3]; Muscle, 2 min post i.v.): 1.98 % ID/g | % ID/g ([3]; Muscle, 5 min post i.v.): 1.80 % ID/g | % ID/g ([3]; Muscle, 30 min post i.v.): 1.11 % ID/g | % ID/g ([3]; Muscle, 60 min post i.v.): 0.63 % ID/g | % ID/g ([3]; Muscle, 120 min post i.v.): 0.20 % ID/g | % ID/g ([3]; Pancreas, 2 min post i.v.): 4.34 % ID/g | % ID/g ([3]; Pancreas, 5 min post i.v.): 3.17 % ID/g | % ID/g ([3]; Pancreas, 30 min post i.v.): 1.74 % ID/g | % ID/g ([3]; Pancreas, 60 min post i.v.): 1.11 % ID/g | % ID/g ([3]; Pancreas, 120 min post i.v.): 0.33 % ID/g | % ID/g ([3]; Skin, 2 min post i.v.): 1.01 % ID/g | % ID/g ([3]; Skin, 5 min post i.v.): 1.28 % ID/g | % ID/g ([3]; Skin, 30 min post i.v.): 1.87 % ID/g | % ID/g ([3]; Skin, 60 min post i.v.): 1.11 % ID/g | % ID/g ([3]; Skin, 120 min post i.v.): 0.45 % ID/g | % ID/g ([3]; Skull, 2 min post i.v.): 1.93 % ID/g | % ID/g ([3]; Skull, 5 min post i.v.): 1.28 % ID/g | % ID/g ([3]; Skull, 30 min post i.v.): 0.95 % ID/g | % ID/g ([3]; Skull, 60 min post i.v.): 1.44 % ID/g | % ID/g ([3]; Skull, 120 min post i.v.): 1.04 % ID/g | % ID/g ([3]; Spleen, 2 min post i.v.): 2.95 % ID/g | % ID/g ([3]; Spleen, 5 min post i.v.): 2.44 % ID/g | % ID/g ([3]; Spleen, 30 min post i.v.): 1.19 % ID/g | % ID/g ([3]; Spleen, 60 min post i.v.): 0.60 % ID/g | % ID/g ([3]; Spleen, 120 min post i.v.): 0.30 % ID/g | % ID/g ([3]; Stomach, 2 min post i.v.): 3.67 % ID/g | % ID/g ([3]; Stomach, 5 min post i.v.): 2.28 % ID/g | % ID/g ([3]; Stomach, 30 min post i.v.): 2.48 % ID/g | % ID/g ([3]; Stomach, 60 min post i.v.): 2.17 % ID/g | % ID/g ([3]; Stomach, 120 min post i.v.): 0.98 % ID/g | % ID/g ([3]; Tail, 2 min post i.v.): 15.89 % ID/g | % ID/g ([3]; Tail, 5 min post i.v.): 7.40 % ID/g | % ID/g ([3]; Tail, 30 min post i.v.): 3.74 % ID/g | % ID/g ([3]; Tail, 60 min post i.v.): 7.70 % ID/g | % ID/g ([3]; Tail, 120 min post i.v.): 4.93 % ID/g | % ID/g ([3]; Testes, 2 min post i.v.): 0.97 % ID/g | % ID/g ([3]; Testes, 5 min post i.v.): 1.10 % ID/g | % ID/g ([3]; Testes, 30 min post i.v.): 1.68 % ID/g | % ID/g ([3]; Testes, 60 min post i.v.): 1.18 % ID/g | % ID/g ([3]; Testes, 120 min post i.v.): 0.61 % ID/g | % ID/g ([3]; Thyroid, 2 min post i.v.): 3.97 % ID/g | % ID/g ([3]; Thyroid, 5 min post i.v.): 2.59 % ID/g | % ID/g ([3]; Thyroid, 30 min post i.v.): 1.06 % ID/g | % ID/g ([3]; Thyroid, 60 min post i.v.): 0.59 % ID/g | % ID/g ([3]; Thyroid, 120 min post i.v.): 0.37 % ID/g | brain washout ([3]; i.v., 60 min vs 2 min): 64% | brain uptake ([3]; i.v., after 2 min): 3.99 % injected dose/g tissue | brain level ([3]; i.v., after 60 min): 1.43 % injected dose/g tissue
Structure (SMILES): COc1ccc2nc(-c3ccc(NC(=O)c4ccc([18F])nc4)cc3)sc2c1 [SKT04-137, 6-[^18F]Fluoro-N-[4-(6-methoxy-benzothiazol-2-yl)-phenyl]-nicotinamide]
